Active and inactive are the calls of the source. No rule for the calls is given here.
Tests used:
Experiment in all cases: kinase panel binding selectivity, selectivity assay, biochemical, KINOMEscan (AID 1982)
SRPK2 = conditions: KINOMEscan 353-kinase binding panel, qPCR, at 10 µM, hits give low values
EPHA1 = conditions: KINOMEscan 353-kinase binding panel, qPCR, at 10 µM, hits give low values
RPS6KA1(Kin.Dom.2) = conditions: KINOMEscan 353-kinase binding panel, qPCR, at 10 µM, hits give low values
NEK7 = conditions: KINOMEscan 353-kinase binding panel, qPCR, at 10 µM, hits give low values
[1] = biological target: Serine/threonine-protein kinase PLK3 (Homo sapiens) (UniProt Q9H4B4); conditions: KINOMEscan 353-kinase binding panel, qPCR, at 10 µM, hits give low values
[2] = biological target: Dual specificity mitogen-activated protein kinase kinase 1 (Homo sapiens) (UniProt Q02750); conditions: KINOMEscan 353-kinase binding panel, qPCR; MEK1; at 10 µM; hits give low values
AMPK-alpha2 = conditions: KINOMEscan 353-kinase binding panel, qPCR, at 10 µM, hits give low values
EPHA4 = conditions: KINOMEscan 353-kinase binding panel, qPCR, at 10 µM, hits give low values
[3] = biological target: SRSF protein kinase 1 (Homo sapiens) (UniProt Q96SB4); conditions: KINOMEscan 353-kinase binding panel, qPCR; SRPK1; at 10 µM; hits give low values
DRAK2 = conditions: KINOMEscan 353-kinase binding panel, qPCR, at 10 µM, hits give low values
NEK9 = conditions: KINOMEscan 353-kinase binding panel, qPCR, at 10 µM, hits give low values
YANK3 = conditions: KINOMEscan 353-kinase binding panel, qPCR, at 10 µM, hits give low values
[4] = biological target: Proto-oncogene tyrosine-protein kinase receptor Ret (Homo sapiens) (UniProt P07949); conditions: KINOMEscan 353-kinase binding panel, qPCR, at 10 µM, hits give low values
GAK = conditions: KINOMEscan 353-kinase binding panel, qPCR, at 10 µM, hits give low values
[5] = biological target: Vascular endothelial growth factor receptor 1 (Homo sapiens) (UniProt P17948); conditions: KINOMEscan 353-kinase binding panel, qPCR; FLT1; at 10 µM; hits give low values
[6] = biological target: RAC-beta serine/threonine-protein kinase (Homo sapiens) (UniProt P31751); conditions: KINOMEscan 353-kinase binding panel, qPCR; AKT2; at 10 µM; hits give low values
[7] = biological target: Glycogen synthase kinase-3 alpha (Homo sapiens) (UniProt P49840); conditions: KINOMEscan 353-kinase binding panel, qPCR; GSK3A; at 10 µM; hits give low values
[8] = biological target: Serine/threonine-protein kinase PAK 6 (Homo sapiens) (UniProt Q9NQU5); conditions: KINOMEscan 353-kinase binding panel, qPCR; PAK6; at 10 µM; hits give low values
DDR1 = conditions: KINOMEscan 353-kinase binding panel, qPCR, at 10 µM, hits give low values
NEK1 = conditions: KINOMEscan 353-kinase binding panel, qPCR, at 10 µM, hits give low values
BRSK2 = conditions: KINOMEscan 353-kinase binding panel, qPCR, at 10 µM, hits give low values
[9] = biological target: Uncharacterized serine/threonine-protein kinase SBK3 (Homo sapiens) (UniProt P0C264); conditions: KINOMEscan 353-kinase binding panel, qPCR; SgK110; at 10 µM; hits give low values
CIT = conditions: KINOMEscan 353-kinase binding panel, qPCR, at 10 µM, hits give low values
TXK = conditions: KINOMEscan 353-kinase binding panel, qPCR, at 10 µM, hits give low values
TIE2 = conditions: KINOMEscan 353-kinase binding panel, qPCR, at 10 µM, hits give low values
TESK1 = conditions: KINOMEscan 353-kinase binding panel, qPCR, at 10 µM, hits give low values
MST4 = conditions: KINOMEscan 353-kinase binding panel, qPCR, at 10 µM, hits give low values
[10] = biological target: Dual specificity tyrosine-phosphorylation-regulated kinase 1B (Homo sapiens) (UniProt Q9Y463); conditions: KINOMEscan 353-kinase binding panel, qPCR; DYRK1B; at 10 µM; hits give low values
PAK3 = conditions: KINOMEscan 353-kinase binding panel, qPCR, at 10 µM, hits give low values
STK36 = conditions: KINOMEscan 353-kinase binding panel, qPCR, at 10 µM, hits give low values
BMX = conditions: KINOMEscan 353-kinase binding panel, qPCR, at 10 µM, hits give low values
[11] = biological target: Serine/threonine-protein kinase DCLK1 (Homo sapiens) (UniProt O15075); conditions: KINOMEscan 353-kinase binding panel, qPCR; DCAMKL1; at 10 µM; hits give low values
CDKL2 = conditions: KINOMEscan 353-kinase binding panel, qPCR, at 10 µM, hits give low values
[12] = biological target: Serine/threonine-protein kinase MRCK alpha (Homo sapiens) (UniProt Q5VT25); conditions: KINOMEscan 353-kinase binding panel, qPCR; MRCKA; at 10 µM; hits give low values
PIK3CA = conditions: KINOMEscan 353-kinase binding panel, qPCR, at 10 µM, hits give low values
MEK4 = conditions: KINOMEscan 353-kinase binding panel, qPCR, at 10 µM, hits give low values
[13] = biological target: Serine/threonine-protein kinase NLK (Homo sapiens) (UniProt Q9UBE8); conditions: KINOMEscan 353-kinase binding panel, qPCR, at 10 µM, hits give low values
[14] = biological target: Dual specificity protein kinase CLK4 (Homo sapiens) (UniProt Q9HAZ1); conditions: KINOMEscan 353-kinase binding panel, qPCR, at 10 µM, hits give low values

Measured: percent of control binding

Proto-oncogene tyrosine-protein kinase receptor Ret (Homo sapiens), sequence (P07949 whole entry, looked up): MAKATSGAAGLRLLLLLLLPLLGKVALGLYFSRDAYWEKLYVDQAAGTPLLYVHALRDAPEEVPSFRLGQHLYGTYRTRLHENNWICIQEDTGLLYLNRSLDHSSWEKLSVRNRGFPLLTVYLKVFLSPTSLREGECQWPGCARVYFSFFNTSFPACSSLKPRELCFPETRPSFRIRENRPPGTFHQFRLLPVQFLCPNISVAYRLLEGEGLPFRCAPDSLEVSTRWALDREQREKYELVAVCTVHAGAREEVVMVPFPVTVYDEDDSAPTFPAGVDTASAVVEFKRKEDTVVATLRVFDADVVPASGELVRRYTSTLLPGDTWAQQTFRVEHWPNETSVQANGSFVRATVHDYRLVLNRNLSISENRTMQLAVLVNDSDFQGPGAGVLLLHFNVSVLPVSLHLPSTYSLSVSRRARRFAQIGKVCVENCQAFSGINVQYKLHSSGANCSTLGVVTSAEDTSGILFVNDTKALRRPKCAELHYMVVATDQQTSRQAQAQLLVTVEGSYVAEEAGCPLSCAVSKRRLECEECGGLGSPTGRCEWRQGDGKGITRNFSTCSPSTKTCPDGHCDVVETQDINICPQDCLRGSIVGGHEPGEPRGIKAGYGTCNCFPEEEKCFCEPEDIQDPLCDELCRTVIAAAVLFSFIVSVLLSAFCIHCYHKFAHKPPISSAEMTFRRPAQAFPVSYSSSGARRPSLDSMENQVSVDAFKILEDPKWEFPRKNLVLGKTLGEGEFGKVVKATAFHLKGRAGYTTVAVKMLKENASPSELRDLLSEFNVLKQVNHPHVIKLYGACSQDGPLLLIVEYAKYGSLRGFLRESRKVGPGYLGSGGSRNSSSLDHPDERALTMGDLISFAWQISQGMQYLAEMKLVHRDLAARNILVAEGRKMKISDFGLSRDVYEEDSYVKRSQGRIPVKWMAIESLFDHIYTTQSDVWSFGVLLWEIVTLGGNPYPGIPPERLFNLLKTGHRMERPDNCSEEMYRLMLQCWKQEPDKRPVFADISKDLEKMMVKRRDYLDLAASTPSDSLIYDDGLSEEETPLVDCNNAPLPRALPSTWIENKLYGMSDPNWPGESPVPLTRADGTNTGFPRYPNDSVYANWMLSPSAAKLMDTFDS
Serine/threonine-protein kinase PAK 6 (Homo sapiens), sequence (Q9NQU5 whole entry, looked up): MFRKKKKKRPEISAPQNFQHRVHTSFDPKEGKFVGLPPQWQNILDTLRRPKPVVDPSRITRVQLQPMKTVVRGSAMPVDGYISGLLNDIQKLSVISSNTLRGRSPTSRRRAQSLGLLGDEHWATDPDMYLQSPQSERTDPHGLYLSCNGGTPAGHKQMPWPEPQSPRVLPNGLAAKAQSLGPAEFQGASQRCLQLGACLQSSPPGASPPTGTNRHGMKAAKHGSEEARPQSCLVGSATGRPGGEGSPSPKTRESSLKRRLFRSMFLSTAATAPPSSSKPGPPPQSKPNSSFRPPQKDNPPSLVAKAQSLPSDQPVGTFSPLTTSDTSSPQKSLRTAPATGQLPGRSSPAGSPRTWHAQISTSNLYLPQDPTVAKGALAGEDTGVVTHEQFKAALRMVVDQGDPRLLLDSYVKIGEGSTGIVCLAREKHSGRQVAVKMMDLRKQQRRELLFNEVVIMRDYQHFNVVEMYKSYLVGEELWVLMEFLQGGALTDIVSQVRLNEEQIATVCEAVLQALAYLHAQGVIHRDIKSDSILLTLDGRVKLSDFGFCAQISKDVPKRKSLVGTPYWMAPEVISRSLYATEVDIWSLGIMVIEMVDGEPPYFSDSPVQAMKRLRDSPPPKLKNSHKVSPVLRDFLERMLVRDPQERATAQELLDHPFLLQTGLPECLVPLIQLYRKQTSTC
Glycogen synthase kinase-3 alpha (Homo sapiens), sequence (P49840 whole entry, looked up): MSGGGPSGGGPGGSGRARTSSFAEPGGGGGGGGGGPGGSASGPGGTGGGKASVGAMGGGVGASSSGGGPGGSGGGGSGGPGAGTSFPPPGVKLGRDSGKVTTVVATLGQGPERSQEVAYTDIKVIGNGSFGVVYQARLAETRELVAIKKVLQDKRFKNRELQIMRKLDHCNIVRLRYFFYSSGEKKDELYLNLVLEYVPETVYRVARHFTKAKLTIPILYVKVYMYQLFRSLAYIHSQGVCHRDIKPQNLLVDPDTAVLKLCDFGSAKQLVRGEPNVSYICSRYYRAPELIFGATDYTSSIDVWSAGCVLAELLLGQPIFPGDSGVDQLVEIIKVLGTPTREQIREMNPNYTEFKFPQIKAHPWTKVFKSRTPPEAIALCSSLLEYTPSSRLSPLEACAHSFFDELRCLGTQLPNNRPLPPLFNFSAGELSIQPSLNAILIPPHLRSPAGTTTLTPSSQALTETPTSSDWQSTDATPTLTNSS
Uncharacterized serine/threonine-protein kinase SBK3 (Homo sapiens), sequence (P0C264 whole entry, looked up): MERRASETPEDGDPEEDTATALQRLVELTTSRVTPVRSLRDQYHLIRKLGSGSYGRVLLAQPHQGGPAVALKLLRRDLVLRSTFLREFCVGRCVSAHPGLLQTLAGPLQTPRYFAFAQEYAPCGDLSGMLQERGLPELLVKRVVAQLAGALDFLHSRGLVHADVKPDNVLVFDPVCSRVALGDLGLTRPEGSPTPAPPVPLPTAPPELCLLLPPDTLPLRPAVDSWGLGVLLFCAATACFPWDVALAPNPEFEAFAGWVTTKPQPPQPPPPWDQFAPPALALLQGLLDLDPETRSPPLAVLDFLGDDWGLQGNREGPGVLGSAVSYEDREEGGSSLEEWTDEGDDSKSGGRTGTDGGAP
SRSF protein kinase 1 (Homo sapiens), sequence (Q96SB4 whole entry, looked up): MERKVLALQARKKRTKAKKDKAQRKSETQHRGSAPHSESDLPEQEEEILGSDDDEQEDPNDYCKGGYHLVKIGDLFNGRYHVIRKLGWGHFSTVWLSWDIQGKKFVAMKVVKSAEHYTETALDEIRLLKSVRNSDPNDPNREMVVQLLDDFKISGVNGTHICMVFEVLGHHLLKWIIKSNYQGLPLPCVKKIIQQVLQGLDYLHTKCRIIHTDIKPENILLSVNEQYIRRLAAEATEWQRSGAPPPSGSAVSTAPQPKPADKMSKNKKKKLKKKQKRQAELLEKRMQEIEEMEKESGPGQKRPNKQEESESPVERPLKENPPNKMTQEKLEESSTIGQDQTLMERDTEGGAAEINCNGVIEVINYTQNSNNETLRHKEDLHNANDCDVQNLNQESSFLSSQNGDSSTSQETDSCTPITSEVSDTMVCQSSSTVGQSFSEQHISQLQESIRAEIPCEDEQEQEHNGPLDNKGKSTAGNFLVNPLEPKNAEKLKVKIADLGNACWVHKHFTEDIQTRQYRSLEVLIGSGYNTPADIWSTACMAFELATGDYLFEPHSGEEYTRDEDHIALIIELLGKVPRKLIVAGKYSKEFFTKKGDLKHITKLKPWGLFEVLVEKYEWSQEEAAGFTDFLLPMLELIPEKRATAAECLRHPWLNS
RAC-beta serine/threonine-protein kinase (Homo sapiens), sequence (P31751 whole entry, looked up): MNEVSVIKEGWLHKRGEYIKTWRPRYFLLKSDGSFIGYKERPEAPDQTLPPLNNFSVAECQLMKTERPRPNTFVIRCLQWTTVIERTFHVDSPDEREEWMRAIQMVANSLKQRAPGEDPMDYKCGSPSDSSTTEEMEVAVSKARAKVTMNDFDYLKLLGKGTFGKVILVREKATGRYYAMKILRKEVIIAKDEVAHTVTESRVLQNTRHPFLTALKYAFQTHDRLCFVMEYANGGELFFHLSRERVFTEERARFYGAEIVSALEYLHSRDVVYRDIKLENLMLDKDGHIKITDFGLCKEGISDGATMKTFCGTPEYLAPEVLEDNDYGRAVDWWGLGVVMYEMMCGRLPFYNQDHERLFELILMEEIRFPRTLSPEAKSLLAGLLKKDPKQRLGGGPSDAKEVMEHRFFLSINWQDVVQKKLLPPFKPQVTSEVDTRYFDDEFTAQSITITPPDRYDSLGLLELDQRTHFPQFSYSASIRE
Serine/threonine-protein kinase PLK3 (Homo sapiens), sequence (Q9H4B4 whole entry, looked up): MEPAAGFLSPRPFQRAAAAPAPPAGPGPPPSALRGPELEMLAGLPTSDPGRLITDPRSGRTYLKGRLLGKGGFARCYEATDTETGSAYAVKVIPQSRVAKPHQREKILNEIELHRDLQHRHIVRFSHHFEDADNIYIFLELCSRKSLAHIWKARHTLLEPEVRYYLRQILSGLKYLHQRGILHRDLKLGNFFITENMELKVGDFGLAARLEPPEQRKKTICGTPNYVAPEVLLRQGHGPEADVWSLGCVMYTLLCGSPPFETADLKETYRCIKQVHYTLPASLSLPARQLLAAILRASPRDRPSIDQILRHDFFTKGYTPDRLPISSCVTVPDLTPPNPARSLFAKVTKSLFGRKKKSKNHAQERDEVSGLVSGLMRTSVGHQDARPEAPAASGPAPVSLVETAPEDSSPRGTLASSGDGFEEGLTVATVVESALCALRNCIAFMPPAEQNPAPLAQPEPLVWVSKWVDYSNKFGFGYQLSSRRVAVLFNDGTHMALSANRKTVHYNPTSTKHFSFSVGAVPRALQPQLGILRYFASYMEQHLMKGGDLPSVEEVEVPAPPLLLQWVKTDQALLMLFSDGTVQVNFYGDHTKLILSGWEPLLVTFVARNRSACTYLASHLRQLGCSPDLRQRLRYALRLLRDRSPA
Dual specificity tyrosine-phosphorylation-regulated kinase 1B (Homo sapiens), sequence (Q9Y463 whole entry, looked up): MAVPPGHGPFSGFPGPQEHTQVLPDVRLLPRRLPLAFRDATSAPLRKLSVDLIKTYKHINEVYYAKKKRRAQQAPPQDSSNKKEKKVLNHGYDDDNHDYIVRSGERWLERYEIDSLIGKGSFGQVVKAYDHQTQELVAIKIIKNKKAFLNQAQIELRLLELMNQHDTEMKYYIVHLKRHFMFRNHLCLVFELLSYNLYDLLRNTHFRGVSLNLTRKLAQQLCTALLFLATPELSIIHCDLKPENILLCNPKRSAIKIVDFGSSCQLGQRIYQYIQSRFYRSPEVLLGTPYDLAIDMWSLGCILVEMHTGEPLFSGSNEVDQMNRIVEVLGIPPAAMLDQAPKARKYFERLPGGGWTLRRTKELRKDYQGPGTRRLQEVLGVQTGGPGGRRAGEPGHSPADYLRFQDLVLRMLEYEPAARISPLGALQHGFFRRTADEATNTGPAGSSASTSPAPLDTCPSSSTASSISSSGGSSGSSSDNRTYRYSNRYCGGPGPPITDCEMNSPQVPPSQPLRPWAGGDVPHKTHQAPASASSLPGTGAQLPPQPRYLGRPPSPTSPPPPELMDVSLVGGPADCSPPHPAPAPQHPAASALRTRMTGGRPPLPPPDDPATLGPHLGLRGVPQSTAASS

Cc1cc2nc(NCCCO)n(CC(=O)c3cc(C(C)(C)C)c(O)c(C(C)(C)C)c3)c2cc1C
inactive: SRPK2 100% | EPHA1 100% | RPS6KA1(Kin.Dom.2) 93% | NEK7 97% | [1] 100% | [2] 75% | AMPK-alpha2 100% | EPHA4 86% | [3] 100% | DRAK2 100% | NEK9 100% | YANK3 100% | [4] 97% | [4]; RET(M918T) 100% | [4]; RET(V804L) 100% | [4]; RET(V804M) 99% | GAK 90% | [5] 100% | [6] 85% | [7] 99% | [8] 76% | DDR1 100% | NEK1 91% | BRSK2 100% | [9] 96% | CIT 100% | TXK 99% | TIE2 100% | TESK1 89% | MST4 100% | [10] 91% | PAK3 79% | STK36 100% | BMX 84% | [11] 100% | CDKL2 96% | [12] 90% | PIK3CA 78% | MEK4 79% | [13] 100% | [14] 100%

From PubChem BioAssay AID1982 (Sanford-Burnham Center for Chemical Genomics, 2009)
